Experimental data taken from US9988381B2, “Five-member-heterocycle fused pyridine compounds, method of producing the same, and use thereof” (SHANGHAI INSTITUTE OF MATERIA MEDICA, CHINESE ACADEMY OF …, priority 2013, dated 2018).
Where two headings read alike, the source gives them in different places.

Experiments:
[1] = molecular target: T1, c-Met kinase domain recombinant protein (Homo sapiens, UniProt P08581); test: biochemical; conditions: for inhibition at 10 µM: read-out: Inhibition rate at 10 μM (%)
T1 construct: 50 μL diluted solution of c-Met kinase domain recombinant protein in reaction buffer was added to initiate the reaction
Procedure, shortened: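 Recombinant c-Met kinase domain phosphorylated immobilised Poly(Glu,Tyr)4:1 for 1 h at 37 °C in 50 mM HEPES pH 7.4, 50 mM MgCl2, 0.5 mM MnCl2, 0.2 mM Na3VO4, 1 mM DTT with ATP. Product measured by anti-phosphotyrosine PY99 ELISA (HRP, 490 nm), giving percent inhibition; ATP-free wells served as control.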

[2] = molecular target: T1, c-Met kinase domain recombinant protein; test: biochemical; conditions: for inhibition at 0.1 µM: read-out: Average inhibition rate at 0.1 μM (%); for inhibition at 1 µM: read-out: Average inhibition rate at 1 μM (%); for inhibition at 10 µM: read-out: Average inhibition rate at 10 μM (%)
Procedure, shortened: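 IC50 came from a four-parameter fit of inhibition rates measured by anti-phosphotyrosine (PY99/HRP) ELISA at 490 nm. The reaction ran 1 hour at 37° C with 5 μM ATP, c-Met kinase domain protein and Poly(Glu,Tyr)4:1-coated wells, in HEPES pH 7.4 buffer containing MgCl2, MnCl2, Na3VO4 and DTT.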

BaF3/TPR-Met cell = test: Test III: growth inhibition of engineered BaF3/TPR-Met cells (MTT); assay type: cell-based; conditions: for inhibition at 0.2 µM / inhibition at 1 µM: Mus musculus; for inhibition at 0.2 µM: read-out: Cell proliferation inhibition rate at 200 nM (%); for inhibition at 1 µM: read-out: Cell proliferation inhibition rate at 1 μM (%)
Procedure: Assays on the growth inhibition of the compounds against engineered BaF3/TPR-Met cell (engineered cell line having TPR-Met fusion protein stably expressed in cytoplasm, persistently activated, Met dependent sensitive cell line; BaF3 cell was purchased from DSMZ, German) were detected using microculture tetrozolium (MTT) staining. A certain amount of BaF3/TPR-Met cells at log phase were inoculated into 96-well culture plate at 90 µL per well, incubated overnight and then 10 μL compound at various concentrations or vehicle control (normal saline) was added, each concentration was tested in triplicate. After incubation with compound for 72 hours, the incubation was terminated, MTT solution (5 mg/mL) was added at 20 μL per well, incubated at 37° C. for 4 hours, then 100 μL triplet solution (10% SDS−5% isobutanol−0.01M HCl) was added, incubated overnight at 37° C., OD value was measured at 570 nm. […] Experiments were conducted in duplicates.

T1 sequence (P08581 1078-1345 limits assumed): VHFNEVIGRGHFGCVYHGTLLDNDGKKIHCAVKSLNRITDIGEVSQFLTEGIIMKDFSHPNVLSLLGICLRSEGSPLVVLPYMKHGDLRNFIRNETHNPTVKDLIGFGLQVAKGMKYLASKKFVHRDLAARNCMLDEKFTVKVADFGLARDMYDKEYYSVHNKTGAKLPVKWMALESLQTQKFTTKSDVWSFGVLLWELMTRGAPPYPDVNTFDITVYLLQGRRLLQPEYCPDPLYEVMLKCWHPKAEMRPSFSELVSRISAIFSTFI

inhibition at 10 µM [1]	IC50 [2]	inhibition at 0.1 µM [2]	inhibition at 1 µM [2]	inhibition at 10 µM [2]	SMILES	Inhibition rate at 10 μM (%) ([1]; compound 10 μM, Table 1)	Average inhibition rate at 0.1 μM (%) ([2]; compound 0.1 μM)	Average inhibition rate at 1 μM (%) ([2]; compound 1 μM)	Average inhibition rate at 10 μM (%) ([2]; compound 10 μM, Table 2)	Cell proliferation inhibition rate at 1 μM (%) (BaF3/TPR-Met cell; BaF3/TPR-Met, 1 μM, 72 hours)	inhibition at 0.2 µM (BaF3/TPR-Met cell; BaF3, 72 h)	inhibition at 1 µM (BaF3/TPR-Met cell; BaF3, 72 h)	inhibition at 1 µM (BaF3/TPR-Met cell; BaF3/TPR-Met, 1 μM, 72 hours)	inhibition at 0.2 µM (BaF3/TPR-Met cell; BaF3/TPR-Met, 200 nM, 72 hours)
					Cl.O=S(=O)(c1cnc2ccccn12)n1ncc2ncc(-c3cnn(C4CCNCC4)c3)cc21 [Example 66, 1-(imidazo[1,2-a]pyridine-3-sulfonyl)-6-{[1-(4-piperidinyl)]-4-pyrazolyl}-1-H-pyrazolo[4,3-b]pyridine chloride]	63%	73.3%	75.8%	79.9%	92.7%				
86.2%	21.3 ± 2.3 nM	71.7%	78%	86.2%	Cn1cc(-c2cnc3cnn(S(=O)(=O)c4cnc5ccc(Cl)nn45)c3c2)cn1 [Example 25, 1-[(6-chloro-imidazo[1,2-b]pyridazine)-3-sulfonyl]-6-[(1-methyl)-4-pyrazolyl]-1-H-pyrazolo[4,3-b]pyridine]						36.3%	88.4%		
65.7%	4.6 ± 1 nM	55.7%	63.8%	65.7%	O=S(=O)(c1cnc2ccccn12)n1ncc2ncc(-c3ccsc3)cc21 [Example 29, 1-(imidazo[1,2-a]pyridine-3-sulfonyl)-6-(3-thienyl)-1-H-pyrazolo[4,3-b]pyridine]							92.6%		
74.1%	1.3 ± 0.1 nM	58.8%	58.3%	60.8%	O=C(C1CC1)N1CCC(n2cc(-c3cnc4cnn(S(=O)(=O)c5cnc6ccccn56)c4c3)cn2)CC1 [Example 55, 1-(imidazo[1,2-a]pyridine-3-sulfonyl)-6-{{1-[(1-cyclopropylcarbonyl)-4-piperidinyl]}-4-pyrazolyl}-1-H-pyrazolo[4,3-b]pyridine]						89.3%	89.8%		
85.7%	316 ± 141 nM	54.9%	72.6%	85.7%	Cn1cc(-c2cnc3cnn(S(=O)(=O)c4cccc5nonc45)c3c2)cn1 [Compound 20, 1-(benzo[1,2,5]oxadiazole-4-sulfonyl)-6-[(1-methyl)-4-pyrazolyl]-1-H-pyrazolo[4,3-b]pyridine]						3.2%	2.9%		
65.7%		67.5%	68.4%	74.1%	CCN1CCC(n2cc(-c3cnc4cnn(S(=O)(=O)c5cnc6ccccn56)c4c3)cn2)CC1 [Example 53, 1-(imidazo[1,2-a]pyridine-3-sulfonyl)-6-{{1-[(1-ethyl)-4-piperidinyl]}-4-pyrazolyl}-1-H-pyrazolo[4,3-b]pyridine]								90.9%	
70.6%	6.7 ± 0.5 nM	64.6%	70.3%	70.6%	O=S(=O)(c1cnc2ccccn12)n1ncc2ncc(-c3ccccc3)cc21 [Example 28, 1-(imidazo[1,2-a]pyridine-3-sulfonyl)-6-phenyl-1-H-pyrazolo[4,3-b]pyridine]							66.1%		
73.3%	6.4 ± 2.2 nM	60.1%	63.8%	73.3%	CN1CCN(C(=O)c2ccc(-c3cnc4cnn(S(=O)(=O)c5cnc6ccccn56)c4c3)cc2)CC1 [Example 37, 1-(imidazo[1,2-a]pyridine-3-sulfonyl)-6-[4-(4-methylpiperazine-1-carbonyl)phenyl]-1-H-pyrazolo[4,3-b]pyridine]						59.5%	96.2%		
59.8%		73.7%	76%	83.2%	CC(C)(C)OC(=O)N1CCC(n2cc(-c3cnc4cnn(S(=O)(=O)c5cnc6ccc(Cl)nn56)c4c3)cn2)CC1 [Example 61]								91.7%	83.1%
83.2%		59%	60.4%	63%	CC(C)(C)OC(=O)N1CCC(n2cc(-c3cnc4cnn(S(=O)(=O)c5cnc6ccc(C(F)(F)F)cn56)c4c3)cn2)CC1 [Example 63]								66.5%	
57.4%		50.1%	53.4%	62.6%	O=S(=O)(c1cnc2ccccn12)n1ncc2ncc(-c3cnn(C4CCN(C5CCCC5)CC4)c3)cc21 [Example 60, 1-(imidazo[1,2-a]pyridine-3-sulfonyl)-6-{{1-[(1-cyclopentyl)-4-piperidinyl]}-4-pyrazolyl}-1-H-pyrazolo[4,3-b]pyridine]								89.4%	84.8%
66%		63.1%	64.6%	68.2%	CC(C)(C)OC(=O)N1CCC(n2cc(-c3cnc4cnn(S(=O)(=O)c5cnc6ccc(Cl)cn56)c4c3)cn2)CC1 [Example 67]								91.6%	90.3%
64%	4.2 ± 0.6 nM	52.2%	60.5%	64%	Cn1cc(-c2cnc3cnn(S(=O)(=O)c4c(Cl)nc5sccn45)c3c2)cn1 [Compound 18]						1.8%	94.4%		
60.3%		51.6%	51.9%	59.8%	CC(C)N1CCC(n2cc(-c3cnc4cnn(S(=O)(=O)c5cnc6ccccn56)c4c3)cn2)CC1 [Example 59, 1-(imidazo[1,2-a]pyridine-3-sulfonyl)-6-{{1-[(1-isopropyl)-4-piperidinyl]}-4-pyrazolyl}-1-H-pyrazolo[4,3-b]pyridine]								89.8%	70.6%
72.3%		64.6%	66.7%	72.3%	O=S(=O)(c1cnc2cccnn12)n1ncc2ncc(-c3cnn(C4CCNCC4)c3)cc21 [Example 51]								7.7%	15.3%

SMILES	inhibition at 10 µM [1]	IC50 [2]	inhibition at 0.1 µM [2]	inhibition at 1 µM [2]	inhibition at 10 µM [2]	Inhibition rate at 10 μM (%) ([1]; compound 10 μM, Table 1)	Average inhibition rate at 0.1 μM (%) ([2]; compound 0.1 μM)	Average inhibition rate at 1 μM (%) ([2]; compound 1 μM)	Average inhibition rate at 10 μM (%) ([2]; compound 10 μM, Table 2)	Cell proliferation inhibition rate at 1 μM (%) (BaF3/TPR-Met cell; BaF3/TPR-Met, 1 μM, 72 hours)	inhibition at 0.2 µM (BaF3/TPR-Met cell; BaF3, 72 h)	inhibition at 1 µM (BaF3/TPR-Met cell; BaF3, 72 h)	inhibition at 1 µM (BaF3/TPR-Met cell; BaF3/TPR-Met, 1 μM, 72 hours)	inhibition at 0.2 µM (BaF3/TPR-Met cell; BaF3/TPR-Met, 200 nM, 72 hours)
CC(C)(C)OC(=O)N1CCC(n2cc(-c3cnc4cnn(S(=O)(=O)c5cnc6ccccn56)c4c3)cn2)CC1 [Example 44, 1-(imidazo[1,2-a]pyridine-3-sulfonyl)-6-{{1-[(1-t-butoxycarbonyl)-4-piperidinyl]}-4-pyrazolyl}-1-H-pyrazolo[4,3-b]pyridine]	87.5%	6.9 ± 1.9 nM	74.6%	78.6%	87.5%						95%	95.8%		
CC(C)(C)OC(=O)N1CCC(n2cc(-c3cnc4cnn(S(=O)(=O)c5cnn6cccnc56)c4c3)cn2)CC1 [Example 46, 1-(pyrazolo[1,5-a]pyrimidine-3-sulfonyl)-6-{{1-[(1-t-butoxycarbonyl)-4-piperidinyl]}-4-pyrazolyl}-1-H-pyrazolo[4,3-b]pyridine]	81.3%		55.9%	65%	81.3%								68%	33.7%
O=S(=O)(c1cnc2ccccn12)n1ncc2ncc(-c3cnn(C4CCNCC4)c3)cc21 [Example 45, 1-(imidazo[1,2-a]pyridine-3-sulfonyl)-6-{[1-(4-piperidinyl)]-4-pyrazolyl}-1-H-pyrazolo[4,3-b]pyridine]	89.6%	2.9 ± 0.6 nM	73.4%	76.5%	89.6%						27.9%	95.9%		
CC(C)(C)OC(=O)N1CCC(n2cc(-c3cnc4cnn(S(=O)(=O)c5cnc6cccnn56)c4c3)cn2)CC1 [Example 49, 1-(imidazo[1,2-b]pyridazine-3-sulfonyl)-6-{{1-[(1-t-butoxycarbonyl)-4-piperidinyl]}-4-pyrazolyl}-1-H-pyrazolo[4,3-b]pyridine]	76.7%		71%	74.5%	76.7%								90.5%	28.4%
